Measured values taken from ChEMBL document CHEMBL1201862, “PubChem BioAssay data set” (2004).
The source made the active and inactive calls. For most assays here, no stated cut-off is given here; in the data, actives have a measured EC50 and inactives only a lower limit.

Key:
[1] = cells; type: functional
[2] = test system: Streptococcus; experiment: GAS UMAA2166 growth inhibition – luminescence, BacTiterGlo, counter-screen for streptokinase expression inhibitor project, dose response (AID 1915); type: functional, organism-based;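 further: potency for reduction of bacterial viability or growth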
[3] = test system: Streptococcus sp. 'group A'; experiment: Streptococcus pyogenes SK(-)GAS viability under kanamycin – luminescence, BacTiterGlo, confirmation, counter-screen for streptokinase expression inhibitor project, dose response (AID 1900); type: functional, organism-based
[4] = target: T1, Streptokinase A (Streptococcus pyogenes serotype M1, UniProt P10520); experiment: viability-normalized secreted streptokinase activity reduction – plasminogen activation absorbance, OD405, dose response (AID 1914); type: functional, Streptococcus pyogenes M1 GAS;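 further: secreted streptokinase activity via plasminogen activation per viability signal from cell pellet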
T1 sequence (P10520 whole entry): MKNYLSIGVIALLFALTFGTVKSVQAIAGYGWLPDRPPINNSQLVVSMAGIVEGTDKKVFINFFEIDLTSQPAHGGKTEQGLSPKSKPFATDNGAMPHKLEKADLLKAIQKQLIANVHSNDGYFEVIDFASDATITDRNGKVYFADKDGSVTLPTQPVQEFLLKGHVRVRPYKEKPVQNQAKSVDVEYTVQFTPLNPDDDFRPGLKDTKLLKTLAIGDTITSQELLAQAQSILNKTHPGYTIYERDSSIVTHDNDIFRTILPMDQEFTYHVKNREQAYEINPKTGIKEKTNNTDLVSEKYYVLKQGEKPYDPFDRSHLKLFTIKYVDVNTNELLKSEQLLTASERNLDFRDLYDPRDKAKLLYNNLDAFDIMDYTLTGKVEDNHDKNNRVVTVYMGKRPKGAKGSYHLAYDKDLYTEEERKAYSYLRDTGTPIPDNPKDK

[5] = viability of uninfected HEp-2 cells – cell-based, HTS, cytotoxicity control for RSV inhibitor project, dose response (AID 2410); type: functional; details: human respiratory syncytial virus
[6] = NIH-3T3 fibroblast cytotoxicity, dose response, cytotoxicity control, cell-based, fluorescence, Alamar Blue, secondary assay (AID 2327); type: functional;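 further: NIH-3T3 mouse fibroblasts cultured with fluconazole at 8 µg/mL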
[7] = fluconazole-exposed Candida albicans growth modulators – fluorescence, retest, confirmation (AID 2467); type: functional, cell-based
[8] = test system: HEK293; experiment: EBV LMP1 TES2 canonical NF-kB signalling blockers – cell-based, HEK293, luciferase, cherry-pick, dose response (AID 588343); type: functional; details: Homo sapiens
[9] = target: T2, Ubiquitin-conjugating enzyme E2 N (Homo sapiens, UniProt P61088); type: functional;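 further: Dose-response confirmation in a TR-FRET assay detecting UBC13-driven polyubiquitin chain formation, inhibition measured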
T2 sequence (P61088 whole entry): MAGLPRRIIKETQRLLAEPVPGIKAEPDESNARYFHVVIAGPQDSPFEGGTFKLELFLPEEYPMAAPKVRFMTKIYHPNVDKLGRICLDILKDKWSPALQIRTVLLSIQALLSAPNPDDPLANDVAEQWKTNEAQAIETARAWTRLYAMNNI

[10] = target: T3, Rac GTPase-activating protein 1 (Homo sapiens, UniProt Q9H0H5); experiment: blockers of MgcRacGAP-driven Rac1 GTP hydrolysis – biochemical, ADP Hunter fluorescence, primary and confirmatory, confirmation (AID 624330); type: functional
T3 sequence (Q9H0H5 whole entry): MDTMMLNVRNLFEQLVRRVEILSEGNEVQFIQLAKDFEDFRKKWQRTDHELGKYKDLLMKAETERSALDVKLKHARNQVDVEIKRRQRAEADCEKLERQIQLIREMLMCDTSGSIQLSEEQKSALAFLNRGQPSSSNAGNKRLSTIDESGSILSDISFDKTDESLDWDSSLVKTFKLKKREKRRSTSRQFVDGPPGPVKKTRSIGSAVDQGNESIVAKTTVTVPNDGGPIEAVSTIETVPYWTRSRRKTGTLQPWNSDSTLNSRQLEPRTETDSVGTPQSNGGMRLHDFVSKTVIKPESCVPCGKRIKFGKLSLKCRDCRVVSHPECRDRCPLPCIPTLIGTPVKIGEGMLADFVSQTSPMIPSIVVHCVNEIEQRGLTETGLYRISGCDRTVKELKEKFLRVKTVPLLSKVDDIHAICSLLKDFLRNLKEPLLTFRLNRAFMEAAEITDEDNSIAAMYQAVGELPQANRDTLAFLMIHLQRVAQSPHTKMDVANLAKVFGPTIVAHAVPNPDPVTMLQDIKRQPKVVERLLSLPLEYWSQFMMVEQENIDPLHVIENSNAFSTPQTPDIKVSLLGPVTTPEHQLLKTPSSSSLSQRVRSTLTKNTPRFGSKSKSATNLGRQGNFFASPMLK

[11] = target: Paired box protein Pax-8 (Homo sapiens, UniProt Q06710); experiment: PAX8 transcriptional activity inhibition in RMG-I – RMG-I cells, luciferase, cherry-pick, dose response (AID 687027); type: functional, cell-based;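 further: luciferase reporter driven by Pax8 target thyroperoxidase promoter measured by SteadyGlo luminescence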
[12] = reduction of Shn3 3'UTR-driven luciferase in osteoblasts – cell-based, Clone20 osteoblasts, firefly luciferase, cherry-picked, dose response (AID 624132); type: functional;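 further: firefly luciferase luminescence from reporter carrying the Shn3 3'UTR in osteoblasts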
[13] = alpha-synuclein stem-loop luciferase translation blockers – H4 neuroglioma cells, luminescence, confirmation (AID 1988); type: functional, cell-based
[14] = luciferase reporter signal suppression in cells – H4 neuroglioma cells, luminescence, dose response (AID 1990); type: functional, cell-based
[15] = Luminescence Cell-Based Dose Response HTS to Identify Inhibitors of 5'UTR Stem-Loop Driven Prion Protein mRNA Translation in H4 Neuroglioblastoma Cells. [Related pubchem assays: 1827 (Project Summary), 1813 (Primary HTS)]; type: functional
[16] = target: Cytochrome P450 3A4 (Homo sapiens, UniProt P08684);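 further: CYP3A4 tested as one member of a cytochrome P450 panel screen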
[17] = Luminescence Cell-Based Dose Confirmation HTS to Identify Inhibitors of Platelet Dense Granule Release. [Related pubchem assays: 1663 (Primary HTS), 1678 (Summary of Project)]; type: functional
[18] = target: Luciferin 4-monooxygenase (Photinus pyralis, UniProt P08659); experiment: inhibition of purified Photinus pyralis luciferase – biochemical, luminescence, dose response (AID 1891)
[19] = NIH3T3 cell viability loss – ATP luminescence, mouse fibroblasts, counter-screen, dose response (AID 2010); type: functional, cell-based;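 further: cells exposed to compound for about 90 hours before reading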
[20] = Trypanosoma cruzi growth suppression in host cells – NIH3T3 host cells, beta-gal luminescence, confirmation (AID 2044); type: functional, cell-based;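 further: intracellular parasites grown in NIH/3T3 mouse fibroblasts as host cells; luminescent beta-galactosidase reporter signal from transgenic T. cruzi replicating inside host cells; inhibitors lower the luminescence signal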
[21] = target: T4, Heat shock factor protein 1 (Mus musculus, UniProt P38532); experiment: decrease of HSF1-responsive luciferase luminescence – cell-based, NIH3T3, dose retest, confirmation (AID 2382); type: functional;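 further: NIH3T3 fibroblasts with HSF1-driven luciferase reporter stressed by proteasome inhibitor MG132; luminescence from HSF1-driven luciferase expression after 8 hours of MG132 stress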
T4 sequence (P38532 whole entry): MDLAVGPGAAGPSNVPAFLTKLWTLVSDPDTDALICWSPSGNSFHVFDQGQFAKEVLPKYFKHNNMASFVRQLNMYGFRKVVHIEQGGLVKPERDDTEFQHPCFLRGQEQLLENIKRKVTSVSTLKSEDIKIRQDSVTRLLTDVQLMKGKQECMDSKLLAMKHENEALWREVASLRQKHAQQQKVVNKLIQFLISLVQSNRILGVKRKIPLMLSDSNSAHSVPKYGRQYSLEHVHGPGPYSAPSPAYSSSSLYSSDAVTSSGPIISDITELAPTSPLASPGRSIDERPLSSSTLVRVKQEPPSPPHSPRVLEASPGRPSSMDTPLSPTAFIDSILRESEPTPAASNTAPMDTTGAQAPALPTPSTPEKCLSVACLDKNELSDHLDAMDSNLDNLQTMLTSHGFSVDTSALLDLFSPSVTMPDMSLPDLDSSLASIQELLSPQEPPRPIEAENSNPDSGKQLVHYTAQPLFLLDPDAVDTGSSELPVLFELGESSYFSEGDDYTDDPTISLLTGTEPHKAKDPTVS

Chain of Paired box protein Pax-8 (Q06710 whole entry): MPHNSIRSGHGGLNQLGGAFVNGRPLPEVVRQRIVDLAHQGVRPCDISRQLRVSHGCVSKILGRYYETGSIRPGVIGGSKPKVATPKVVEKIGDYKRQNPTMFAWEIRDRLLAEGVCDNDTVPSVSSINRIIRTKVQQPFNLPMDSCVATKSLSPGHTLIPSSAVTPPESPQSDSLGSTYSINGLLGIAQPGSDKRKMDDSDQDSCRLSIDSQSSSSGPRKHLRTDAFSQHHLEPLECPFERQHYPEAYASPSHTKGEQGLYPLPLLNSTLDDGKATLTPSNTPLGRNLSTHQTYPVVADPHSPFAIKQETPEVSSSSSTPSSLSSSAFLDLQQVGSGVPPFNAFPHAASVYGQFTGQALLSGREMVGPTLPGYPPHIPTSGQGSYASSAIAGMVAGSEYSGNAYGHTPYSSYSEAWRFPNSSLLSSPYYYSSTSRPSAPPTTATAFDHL
Chain of Cytochrome P450 3A4 (P08684 whole entry): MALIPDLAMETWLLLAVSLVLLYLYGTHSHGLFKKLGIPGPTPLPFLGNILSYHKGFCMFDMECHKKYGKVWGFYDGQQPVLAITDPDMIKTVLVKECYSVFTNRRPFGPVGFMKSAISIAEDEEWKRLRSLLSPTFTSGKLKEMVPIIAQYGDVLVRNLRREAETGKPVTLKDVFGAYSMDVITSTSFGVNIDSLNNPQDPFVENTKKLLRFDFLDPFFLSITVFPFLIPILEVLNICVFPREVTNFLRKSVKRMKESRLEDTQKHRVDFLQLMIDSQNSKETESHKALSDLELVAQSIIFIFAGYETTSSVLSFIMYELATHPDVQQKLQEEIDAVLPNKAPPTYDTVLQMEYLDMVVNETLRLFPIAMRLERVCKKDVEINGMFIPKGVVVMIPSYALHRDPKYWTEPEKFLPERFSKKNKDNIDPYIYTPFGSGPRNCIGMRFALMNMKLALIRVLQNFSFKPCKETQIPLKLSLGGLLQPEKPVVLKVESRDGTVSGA
Chain of Luciferin 4-monooxygenase (P08659 whole entry): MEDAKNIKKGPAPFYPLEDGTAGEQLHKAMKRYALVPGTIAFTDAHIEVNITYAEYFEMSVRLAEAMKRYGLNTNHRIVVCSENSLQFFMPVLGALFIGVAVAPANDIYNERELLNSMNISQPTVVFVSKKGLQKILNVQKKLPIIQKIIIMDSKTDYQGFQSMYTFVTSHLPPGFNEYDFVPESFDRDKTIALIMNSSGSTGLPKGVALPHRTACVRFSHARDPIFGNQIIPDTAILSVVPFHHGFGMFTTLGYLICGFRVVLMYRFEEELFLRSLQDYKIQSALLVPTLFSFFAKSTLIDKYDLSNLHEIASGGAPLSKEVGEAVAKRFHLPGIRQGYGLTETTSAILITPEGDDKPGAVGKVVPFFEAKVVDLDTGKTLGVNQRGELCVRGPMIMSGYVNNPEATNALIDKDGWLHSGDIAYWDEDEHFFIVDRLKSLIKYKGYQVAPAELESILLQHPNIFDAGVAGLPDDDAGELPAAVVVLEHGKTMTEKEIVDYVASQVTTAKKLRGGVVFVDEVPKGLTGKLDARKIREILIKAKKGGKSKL

COCCSc1nnc(NC(=O)CCS(=O)(=O)Cc2ccccc2)s1
IC50 [1]: 45.5 µM (active)

O=C(Cc1ccc(Br)cc1)Nc1nc2ccccc2[nH]1
EC50 [2]: > 150 µM (not active) | EC50 [3]: > 150 µM (not active) | EC50 [4]: > 150 µM (not active)

CCCOC(=O)c1cc(NC(=O)/C=C/c2ccccc2)ccc1O
CC50 [5]: 20.4 µM (active)

COC(=O)N/N=C/c1c[n+]([O-])c2ccccc2[n+]1[O-] [CARBADOX]
EC50 [2]: 11.5 µM (active) | EC50 [3]: 9.12 µM (active) | EC50 [4]: > 150 µM (not active)

O=C(Oc1ccc(Cl)c2cccnc12)c1cccc([N+](=O)[O-])c1
EC50 [6]: 19.9 µM (inconclusive) | EC50 [7]: > 38 µM (not active)

Cc1ccc(-c2cc(C(=O)N/N=C/C=C/c3ccco3)c3ccccc3n2)cc1C
AC50 [8]: 1.63 µM (active)

CCCc1cc(C(=O)Nc2ccc(C(=O)c3ccc(F)cc3)cc2)n(C)n1
EC50 [2]: > 150 µM (not active) | EC50 [3]: 19.7 µM (active) | EC50 [4]: 46.9 µM (active)

O=C(c1ccc(F)cc1)N1CCN2C(=O)c3ccccc3C12c1ccc(Cl)cc1 (stereo not drawn)
CC50 [5]: 29 µM (active)

Cc1cccc(-n2ncc3c2CCCC3NC(=O)CCN2Cc3ccccc3C2=O)c1C (stereo not drawn)
EC50 [2]: > 150 µM (not active) | EC50 [3]: > 150 µM (not active) | EC50 [4]: > 150 µM (not active)

O=C(Nc1ccccc1)N1CCN(c2nc(-c3ccccc3)ns2)CC1
IC50 [9]: > 20 µM (inactive)

Cc1cccc(NC(=O)NC2CCCCCCC2)c1
EC50 [6]: 24.8 µM (active) | EC50 [7]: > 38 µM (not active)

CN(C)c1ccc(NC(=O)CCN2C(=O)c3cccc([N+](=O)[O-])c3C2=O)cc1
IC50 [10]: 86.5 µM (active)

CN(/N=C/c1ccc(O)cc1O)c1nc(-c2ccccc2)cc(-c2ccccc2)n1
AC50 [11]: 26.9 µM (active)

Cc1cc(C)c(S(=O)(=O)Nc2cccc(-n3cnnn3)c2)c(C)c1
EC50 [6]: 29.6 µM (active) | EC50 [7]: 10.9 µM (active)

Cc1cccc(/N=C2/Sc3nc4c(C)c(C)ccc4cc3CN2CCN2CCOCC2)c1
CC50 [5]: 16.1 µM (active)

O=C(C(=O)N1CCOCC1)c1cn(Cc2ccc(F)cc2)c2ccccc12
IC50 [9]: > 20 µM (inactive)

O=C(CSC(=S)N1CCOCC1)c1cc(Br)cc(Br)c1O
EC50 [2]: > 150 µM (not active) | EC50 [3]: 25 µM (active) | EC50 [4]: > 150 µM (not active)

CC(=O)N1CCOc2cc(S(=O)(=O)NCc3ccc(F)cc3)c(C)cc21
AC50 [12]: > 70 µM (inactive)

CN(C1=NC(=O)C(CC(=O)Nc2ccc(Br)cc2)S1)c1ccc(O)cc1 (stereo not drawn)
EC50 [13]: 23.8 µM (active) | EC50 [14]: 66.4 µM (active) | EC50 [15]: > 120 µM (not active) | CC50 [5]: 36 µM (active)

COc1ccc(C(=O)NC(=S)NC(C)(C)C)cc1Br
AC50 [16]: 14.1 µM (inconclusive) | EC50 [17]: > 112 µM (not active) | EC50 [18]: > 112 µM (not active)

COc1cc2c(cc1OC)CN(C(=O)c1ccc3[nH]c(C)c(C)c3c1)CC2
CC50 [5]: > 50 µM (active)

O=C(CCN1CCN(C/C=C/c2ccccc2)CC1)Nc1ccc(Cl)cc1
IC50 [1]: 34.6 µM (active)

O=c1c2sccc2[nH]c(=S)n1-c1ccccc1
IC50 [9]: > 20 µM (inactive)

CC1=Nc2ncnn2C(c2cccnc2)/C1=C(\O)OC1CCCCC1 (stereo not drawn)
EC50 [19]: > 60 µM (not active) | AC50 [11]: 36.1 µM (active) | EC50 [20]: 2.35 µM (active)

CCOc1ccc(NC(=O)CN(C)C(=O)C2CC(=O)N(c3ccc4c(c3)OCCO4)C2)cc1OCC (stereo not drawn)
EC50 [2]: > 150 µM (not active) | EC50 [3]: > 150 µM (not active) | EC50 [4]: > 150 µM (not active)

O=C(Nc1ccc(Cl)cc1)c1ccc(-n2cncn2)c([N+](=O)[O-])c1
CC50 [5]: 20.6 µM (active)

O=C(OCC#CCSc1nnc(-c2ccccc2)o1)c1ccco1
IC50 [1]: 21.1 µM (active)

COc1cc(N(C)C)c([N+](=O)[O-])cc1C(=O)N1CCN(Cc2ccccc2)CC1
AC50 [8]: 12.8 µM (active)

Cc1ccc(NC(=S)NC(=O)C2CC2)cc1Cl
EC50 [6]: > 160 µM (inactive) | EC50 [7]: 3.32 µM (active)

Cc1c(NCc2cc(Cl)cc(Cl)c2O)c(=O)n(-c2ccccc2)n1C
EC50 [2]: > 150 µM (not active) | EC50 [3]: 4.76 µM (active) | EC50 [4]: 21.1 µM (active)

CN(C)c1ccc(/C=C2/NC(=O)NC2=O)cc1
IC50 [10]: 51.2 µM (active)

COC(=O)c1ccc(NCc2c(O)ccc(O)c2Br)cc1Cl
IC50 [10]: 57.6 µM (active)

COc1ccc(Cl)cc1C(=O)NCc1ccc2c(c1)OCO2
CC50 [5]: 34.4 µM (active)

CCCCC(=O)Nc1ncc([N+](=O)[O-])s1
EC50 [6]: > 160 µM (inactive) | EC50 [7]: 0.141 µM (active)

COc1ccccc1C1=Nn2c(nnc2C2CCCCC2)SC1
IC50 [1]: 12.1 µM (active)

COc1cc2cc(C(=O)Nc3ccc4c(c3)OCCO4)[nH]c2cc1OC
EC50 [21]: 0.907 µM (active) | AC50 [8]: 0.595 µM (active)
